These results are taken from patent US11919855B2, “Substituted pyrrolidones and piperidones as small molecule inhibitors of EZH2 and EED protein binding” (Northwestern University, priority 2021, dated 2024).

In the experiment the target is EED-EZH2 (Homo sapiens (Human), UniProt O75530). Put plainly: EED-EZH2 AlphaScreen assay. It counts as binding. Particulars: 8.7 nM EZH2, 5.0 nM EED, read-out: IC50 Potency Code. As to the method: Biological activity of exemplary substituted pyrrolidones and piperidones was determined by the EED-EZH2 AlphaScreen assay according the following methodology.
Sequence of EED-EZH2 (O75530 2-441): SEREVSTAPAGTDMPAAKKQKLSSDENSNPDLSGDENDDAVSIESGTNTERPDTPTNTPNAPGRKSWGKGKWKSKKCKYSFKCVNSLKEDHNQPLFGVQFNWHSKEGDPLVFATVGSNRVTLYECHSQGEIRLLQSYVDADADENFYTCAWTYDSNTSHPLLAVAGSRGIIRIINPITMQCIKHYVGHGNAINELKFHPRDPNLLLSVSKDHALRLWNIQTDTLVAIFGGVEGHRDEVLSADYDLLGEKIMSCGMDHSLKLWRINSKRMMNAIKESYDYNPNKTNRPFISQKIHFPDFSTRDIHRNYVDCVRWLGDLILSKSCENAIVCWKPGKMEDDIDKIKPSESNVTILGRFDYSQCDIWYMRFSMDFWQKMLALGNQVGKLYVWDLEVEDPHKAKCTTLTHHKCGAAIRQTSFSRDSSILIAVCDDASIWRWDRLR
EZH2 (non-complexed), His-GST-tags
Anti-FLAG AlphaLISA Acceptor Beads
AlphaScreen GSH Donor Beads
Assay Protocol (Calculated for 384 Wells or 1 Plate)
• 1. Thaw EED and EZH2 proteins on ice. • 2. Prepare 1× HMT Buffer 2: • 1.5 mL of 4× HMT Buffer 2+4.5 mL ddH2O. • 3. Prepare 1.2× EED-EZH2 solution in 1× HMT Buffer 2: 3.4 mL total • 2.1 uL of EED (0.41 mg/mL, 8.04 uM, 1:1608 dilution)+14 uL of EZH2 (0.24 mg/mL, 2.11 uM, 1:243 dilution)+3.384 mL of 1× HMT Buffer 2 • 4. Prepare 1.2× EZH2 solution in 1× HMT Buffer 2 (positive control): 0.168 mL total • 0.69 uL of EZH2 (0.24 mg/mL, 2.11 uM, 1:243 dilution)+167 uL of 1× HMT Buffer 2 • 5. Add 10 μL of 1.2× EED-EZH2 or 1.2× EZH2 solution to each well. • 6. Add compounds in DMSO via Echo transfer and 30 nL DMSO for control wells. • 7. Centrifuge at 15,000 rpm for 10 seconds and allow to incubate at rt for 1 hour. Step Two • 1. Prepare 6× Anti-FLAG and GSH Donor beads in 1× HMT Buffer 2 in the dark: 1 mL total • 10 uL of Anti-FLAG (1:100 dilution)+5 uL of GSH Donor (1:200 dilution)+985 uL of 1× HMT Buffer 2 • 2. Add 2 μL of bead solution to each well. • 3. Centrifuge at 15,000 rpm for 10 seconds and allow to incubate at rt for 1 hour in the dark. • 4. Read plate. Final Concentrations: • 12 μL volume per well • 8.7 nM EZH2 • 5.0 nM EED • DMSO<0.5% Calculations: • 1. Average EZH2 only wells (positive control) and subtract from all other wells. • 2. Average EED-EZH2 only wells (negative control) to indicate 100% signal or 0% inhibition. • 3. Normalize each well to the average 100% signal from step 2. • 4. Report either as normalized % inhibition or normalized % signal. • Use GraphPad to Calculate IC50.
For orientation: In Alpha technology, singlet oxygen from a donor bead excites a nearby acceptor bead.

The structures appear in SMILES notation. pIC50: −log10 of the molar value.

One may read the pIC50 as the negative decadic logarithm of the IC50, by convention in mol/L. For the molecule `O=C(NC1CC(=O)N(Cc2ccccc2C(F)(F)F)C1)c1coc2ccccc12` (centres unmarked) [NUCC-0202760], the pIC50 is < 4.30.
The value for `O=C(NC1CC(=O)N(Cc2ccccc2C(F)(F)F)C1)c1cc(Cl)ccc1O` (centres unmarked) [NUCC-0202833] was 5.00 to 6.00; that for `CC(C)(CO)C(=O)NC1CC(=O)N(Cc2ccccc2C(F)(F)F)C1` (centres unmarked) [NUCC-0202851] was < 4.30; that for `Cc1ccc(O)c(C(=O)N[C@H]2CC(=O)N(Cc3ccc(Cl)c(Cl)c3)C2)c1` [NUCC-0202975] was 4.30 to 5.00.
As for `O=C(NC1CC(=O)N(Cc2ccccc2C(F)(F)F)C1)c1ccc2ccccc2n1` (centres unmarked) [NUCC-0202758], the pIC50 is < 4.30.
Next, `O=C(N[C@@H]1CC(=O)N(Cc2ccccc2C(F)(F)F)C1)c1cc(C(F)(F)F)ccc1O` [NUCC-0223628]: > 6.00; `Cc1ccc(O)c(C(=O)Nc2ccc(=O)n(Cc3ccccc3C(F)(F)F)c2)c1` [NUCC-0202969]: < 4.30; `O=C(NC[C@@H]1CC(=O)N(Cc2cccc(C(F)(F)F)c2)C1)c1cc(C(F)(F)F)ccc1O` [NUCC-0226244]: > 6.00.
Take `O=C(NC1CC(=O)N(Cc2ccc(Cl)c(Cl)c2)C1)c1cccc(-c2ccccc2)c1` (centres unmarked) [NUCC-0202677]: the pIC50 was < 4.30.
Next, `N#Cc1cccc(C(=O)NC2CC(=O)N(Cc3ccccc3[N+](=O)[O-])C2)c1` (centres unmarked) [NUCC-0202659]: < 4.30.
With `COc1cccc(CC(=O)NC2CC(=O)N(Cc3ccccc3[N+](=O)[O-])C2)c1` (centres unmarked) [NUCC-0202655], the negative logarithm of the IC50 (pIC50) is < 4.30.
Turning to `Cc1c(C(=O)NC2CC(=O)N(Cc3ccccc3C(F)(F)F)C2)cccc1[N+](=O)[O-]` (centres unmarked) [NUCC-0202662], the negative-log IC50 (pIC50) is < 4.30.
Next, `Cc1ccc(O)c(C(=O)NC2CC(=O)N(Cc3ccccc3[N+](=O)[O-])C2)c1` (centres unmarked) [NUCC-0202653]: 5.00 to 6.00.
The value for `O=C1C(Nc2ncnc3ccc(C(F)(F)F)cc23)CCN1Cc1ccccc1C(F)(F)F` (centres unmarked) [NUCC-0223825] was < 4.30; that for `O=C(N[C@H]1CC(=O)N(Cc2cccc(C(F)(F)F)c2)C1)c1cc(C(F)(F)F)ccc1O` [NUCC-0226234] was 5.00 to 6.00.
As to `Cc1ccc(O)c(C(=O)NC2CC(=O)N(Cc3ccccc3C(F)(F)F)C2)c1` (centres unmarked) [NUCC-0163358], the pIC50 is 5.00 to 6.00.
With `O=C(NC1CC(=O)N(Cc2ccccc2C(F)(F)F)C1)c1cc2ccccc2cc1O` (centres unmarked) [NUCC-0202830], the pIC50 was 4.30 to 5.00.
`O=C(NC1CCN(Cc2ccccc2C(F)(F)F)C1=O)c1cc(Cl)ccc1O` (centres unmarked) [NUCC-0223824]: the pIC50 is < 4.30.
The value for `O=C(NC1CC(=O)N(Cc2ccccc2C(F)(F)F)C1)c1ccc(Cl)c(Cl)c1` (centres unmarked) [NUCC-0202670] was < 4.30; that for `O=C(NC1CC(=O)N(Cc2ccccc2C(F)(F)F)C1)c1cc(Br)ccc1O` (centres unmarked) [NUCC-0202834] was 5.00 to 6.00.
Turning to `O=C(NC1CCC(=O)N(Cc2ccccc2C(F)(F)F)C1)c1cc(C(F)(F)F)ccc1O` (centres unmarked) [NUCC-0223818], the negative-log IC50 (pIC50) is 5.00 to 6.00.
As to `O=C(NC1CCN(Cc2ccccc2C(F)(F)F)C1=O)c1ccc(C(F)(F)F)cc1O` (centres unmarked) [NUCC-0223822], the pIC50 was < 4.30.
On to `Cc1ccc(O)c(C(=O)N[C@H]2CC(=O)N(Cc3ccccc3Cl)C2)c1` [NUCC-0202973], for which the pIC50 is 4.30 to 5.00.
In the case of `Cc1ccc(O)cc1C(=O)NC1CC(=O)N(Cc2ccccc2C(F)(F)F)C1` (centres unmarked) [NUCC-0202754], the pIC50 was < 4.30.
Next, `COC(=O)c1ccccc1CN1CC(NC(=O)c2cc(C)ccc2O)CC1=O` (centres unmarked) [NUCC-0202967]: 5.00 to 6.00; `O=C(NC1CC(=O)N(Cc2ccccc2C(F)(F)F)C1)c1ccc2ccccc2c1O` (centres unmarked) [NUCC-0202761]: 4.30 to 5.00; `CC1(C)C(=O)N(Cc2ccccc2C(F)(F)F)CC1NC(=O)c1cc(C(F)(F)F)ccc1O` (centres unmarked) [NUCC-0223629]: 4.30 to 5.00.
The value for `O=C(N[C@@H]1CC(=O)N(Cc2cccc(C(F)(F)F)c2)C1)c1cc(C(F)(F)F)ccc1O` [NUCC-0226235] was 5.00 to 6.00; that for `O=C(NCC1CC(=O)N(Cc2cccc(C(F)(F)F)c2)C1)c1cc(C(F)(F)F)ccc1O` (centres unmarked) [NUCC-0226233] was > 6.00.
Consider `Cc1ccc(O)c(C(=O)NC2CCC(=O)N(Cc3ccccc3C(F)(F)F)C2)c1` (centres unmarked) [NUCC-0202971], for which the negative logarithm of the IC50 (pIC50) was 5.00 to 6.00.
Regarding `O=C(O)c1ccccc1C(=O)NC1CC(=O)N(Cc2ccccc2C(F)(F)F)C1` (centres unmarked) [NUCC-0202666], the negative logarithm of the IC50 (pIC50) is < 4.30.
Next, `Cc1cccc(C(=O)NC2CC(=O)N(Cc3ccc(Cl)c(Cl)c3)C2)c1` (centres unmarked) [NUCC-0202678]: < 4.30.
The value for `O=C(NC1CC(=O)N(Cc2ccccc2[N+](=O)[O-])C1)c1cccnc1` (centres unmarked) [NUCC-0202657] was < 4.30; that for `O=C(Cc1cc2ccccc2[nH]1)NC1CC(=O)N(Cc2ccccc2C(F)(F)F)C1` (centres unmarked) [NUCC-0202756] was < 4.30; that for `Cc1ccc(O)c(C(=O)N[C@@H]2CC(=O)N(Cc3ccc(C(F)(F)F)cc3)C2)c1` [NUCC-0202978] was < 4.30.
The value for `Cc1ccc(O)c(C(=O)NC2CC(=O)N(Cc3ccccc3C(F)(F)F)C2)c1` (centres unmarked) [NUCC-0202826] was < 4.30; that for `Cc1ccc(N)c(C(=O)NC2CC(=O)N(Cc3ccccc3C(F)(F)F)C2)c1` (centres unmarked) [NUCC-0202793] was < 4.30; that for `O=C(NC1CC(=O)N(Cc2ccccc2C(F)(F)F)C1)c1cscn1` (centres unmarked) [NUCC-0202759] was < 4.30.
`Cc1ccc(O)c(C(=O)N[C@H]2CC(=O)N(C3CCc4ccccc43)C2)c1` (some centres unmarked) [NUCC-0202976]: the pIC50 is < 4.30.
Next, `COc1ccc(C)cc1C(=O)NC1CC(=O)N(Cc2ccc(Cl)c(Cl)c2)C1` (centres unmarked) [NUCC-0202673]: < 4.30; `Cc1c(C(=O)NC2CC(=O)N(Cc3ccccc3[N+](=O)[O-])C2)cccc1[N+](=O)[O-]` (centres unmarked) [NUCC-0202656]: < 4.30.
Next, `Cc1ccc(O)c(C(=O)NC2CC(=O)N(Cc3ccc(Cl)c(Cl)c3)C2)c1` (centres unmarked) [NUCC-0202672]: 4.30 to 5.00; `O=C(NC1CC(=O)N(Cc2ccc(Cl)c(Cl)c2)C1)c1ccccc1O` (centres unmarked) [NUCC-0202674]: < 4.30.
Next, `O=C(NC[C@H]1CCC(=O)N1Cc1cccc(C(F)(F)F)c1)c1cc(C(F)(F)F)ccc1O` [NUCC-0226242]: 5.00 to 6.00; `Cc1ccc(O)c(C(=O)NC2CC(=O)N(Cc3ccccc3C(=O)O)C2)c1` (centres unmarked) [NUCC-0202966]: 5.00 to 6.00; `O=C(NC1CCN(Cc2cccc(C(F)(F)F)c2)C1=O)c1cc(C(F)(F)F)ccc1O` (centres unmarked) [NUCC-0226232]: 5.00 to 6.00.
For `COc1ccc(C)cc1C(=O)NC1CC(=O)N(Cc2ccccc2[N+](=O)[O-])C1` (centres unmarked) [NUCC-0202654], the pIC50 was < 4.30.
`O=C(NC1CC(=O)N(Cc2ccccc2C(F)(F)F)C1)c1cccnc1` (centres unmarked) [NUCC-0202663]: the pIC50 was < 4.30.
For `O=C(NC1CC(=O)N(Cc2ccccc2C(F)(F)F)C1)c1ccccc1O` (centres unmarked) [NUCC-0202669], the pIC50 was < 4.30.
The value for `O=C(NC1CC(=O)N(Cc2ccccc2C(F)(F)F)C1)c1ccnc(Cl)n1` (centres unmarked) [NUCC-0202757] was < 4.30; that for `CC(C)(C)c1ccc(O)c(C(=O)NC2CC(=O)N(Cc3ccccc3C(F)(F)F)C2)c1` (centres unmarked) [NUCC-0202752] was < 4.30; that for `O=C(NC1CC(=O)N(Cc2ccc(Cl)c(Cl)c2)C1)c1cccnc1` (centres unmarked) [NUCC-0202675] was < 4.30.
In the case of `Cc1cccc(O)c1C(=O)NC1CC(=O)N(Cc2ccccc2C(F)(F)F)C1` (centres unmarked) [NUCC-0202827], the pIC50 is < 4.30.
